Results published in US11376307B2, “Compositions and methods of treating cancer with glycomimetic peptides” (SUSAVION BIOSCIENCES, INC., priority 2018, dated 2022).
Positions of bridges follow the written chain, without caps; N, C: chain ends. Chains are numbered I, II in the order given.

Assays:
peritoneal immune cells = test: Expansion of peritoneal cells after subcutaneous injection, flow cytometry; format: in vivo, C57BL/6 mice; details: for Change in mature, active peritoneal immune cell populations: 1 nmol/g s.c. on days 0, 2, 4, cells 24 h after each injection
Protocol: FIGS. 7A-7D. Expansion of peritoneal cells in C57BL/6 mice. Mice were injected subcutaneously at a dose of 1 nmol/g body weight of svL4, sv6D or svC1. Cells in each population recovered in a peritoneal lavage are expressed as cell counts (in thousands). Cells from three mice in each treatment group were pooled for analysis. The number of cells in each population was normalized to the average recovery of total cells from all groups. For each cell type, the left-hand, middle and right-hand set of bars represent samples from mice treated with svL4, sv6D or svC1, respectively. Mice were injected on days 0, 2 and 4, and cells were collected 24 h after each injection. Day 1, open bar; day 3, grey bar; day 5, black bar. Populations that express activation markers are indicated by an asterisk.
Flow Cytometry Healthy C57BL/6 male mice, 10 weeks old, were injected subcutaneously with peptides on alternate days. Peritoneal cells were isolated from mice 24 h after dosing by injecting ice cold PBS (containing 3% FBS) into the peritoneal cavity, gently massaging the abdomen, and then collecting the fluid, which was transferred into K2EDTA-treated tubes for evaluation of specific biomarkers. Cells from three mice in each group were pooled, counted and divided among FACS tubes (1×10^6 cells per tube). Cells were washed once in PBS containing 3% FBS, then stained with 0.25 to 1 μg of fluorescently conjugated antibody per 10^6 cells in 100 μL of buffer as recommended by the manufacturer (Table 1).
Cells were incubated with the antibodies for 30 min at 4° C. in the dark. Following staining, the cells were washed two times with PBS/3% FBS and immediately analyzed with a MACSQuant flow cytometer (Miltenyi Biotech, Inc., San Diego, Calif.). Compensation was performed using single stain tubes for each color present in the analysis as well as an unstained control sample. Collection of flow cytometric data and analysis with FlowJo software, version 10.0.6 (FlowJo, LLC, Ashland, Oreg.) were performed by Biomodels LLC (Watertown, Mass.).
To examine whether increases occurred in mature immune cells, peritoneal cells from Balb/c and C57BL/6 mice were analyzed by flow cytometry after cells were stained with the markers listed in Table 1. […] To explore this observation more extensively, svL4 or sv6D was injected into C57BL/6 mice on day 0, 2 or 4. Peritoneal cells were examined by flow cytometry 24 h after each injection. Shown in FIGS. 7A-7D are results expressed as cell counts for F4/80 CD11b CD86 (mature, active macrophages); CD11c (DCs); CD11c CD86 (activated DCs); CD4 CD69 (activated T cells); CD8 CD69 (activated cytotoxic T cells); NK1.1 CD3^+ CD69 (activated NKT cells); NK1.1 CD3^− CD69 (activated NK cells); CD19 (B cells); and CD19 CD73 CD80 CD273 (memory B cells). The numbers of these mature, activated cells continued to increase with each injection.

Siglec-1 = target: T1, Siglec-1 (Homo sapiens, UniProt Q9BZZ2); test: Solid-phase binding assay, survey of other receptors
T1 construct: The extracellular domains of receptors, which were fused with the Fc domain of immunoglobulin IgG; purchased R&D Systems
Protocol: (§1) Binding Assays Solid-phase binding assays were performed with streptavidin-, protein A/G-, or Nickel-coated microtiter plates (Pierce). His-tagged or Fc-fusion recombinant receptors (R&D Systems, Minneapolis, Minn.) were reconstituted in PBS. Sufficient receptors were added to wells to saturate the coating. His-tagged receptors were added to each well at a 5-fold excess over the stated capacity of the Ni coating to minimize non-specific binding of the peptide. Wells were washed three times with binding buffer (25 mM Tris HCl, pH 7.4, 150 mM NaCl, 0.05% Tween-20) to remove unbound receptor and 50 μL of 2 μM biotinylated peptide in binding buffer were added and allowed to incubate for 1 h. The wells were washed four times with binding buffer and then incubated with 50 μL of 1 μg/mL streptavidin conjugated with peroxidase (Sigma-Aldrich) for 1 h. The wells were washed five times with binding buffer and 50 μL of peroxidase substrate (1-Step™ Ultra TMB, Pierce) were added. After several minutes to allow color development, the reaction was stopped with 50 μL 1 M H3PO4 and absorbance was measured at 450 nm. Bound streptavidin was quantitated by the specific activity of peroxidase (absorbance/ng protein conjugate/min) under the conditions of the assay.
(§2) Solid-phase binding assays were performed with recombinant human receptors. Three variations of the binding assay were used in this study, all of which allowed the arms of the tetravalent peptide to have full flexibility. (i) Biotinylated peptide was bound in microtiter wells coated with streptavidin and incubated with recombinant human receptors. After extensive washing, the bound receptor was measured by peroxidase conjugated to a receptor-specific antibody. (ii) The extracellular domains of receptors, which were fused with the Fc domain of immunoglobulin IgG, were bound in wells coated with protein A/G. Biotinylated peptide was incubated with the receptors and, after extensive washing, bound peptide was measured with streptavidin conjugated with peroxidase. Or (iii), recombinant receptors with a poly-His tag were bound to Nickel-coated wells and incubated with biotinylated peptide. svL4 and sv6D contain His residues (FIGS. 1A, 1C) and can bind to the Ni coating, which was minimized by adding sufficient poly-His-tagged receptor to saturate the Ni coating.
(§3) Of the receptors we have assayed thus far, the peptides bound to those specific for GalNAc, which included CLEC4F, a GalNAc-binding receptor expressed by Kupffer cells that is also homologous to ASGPR-1 [50].

DC-SIGN = target: T2, DC-SIGN (Homo sapiens, UniProt Q9NNX6); test: as above
T2 construct: The extracellular domains of receptors, which were fused with the Fc domain of immunoglobulin IgG; purchased R&D Systems
T2 sequence (Q9NNX6 59-404 limits assumed): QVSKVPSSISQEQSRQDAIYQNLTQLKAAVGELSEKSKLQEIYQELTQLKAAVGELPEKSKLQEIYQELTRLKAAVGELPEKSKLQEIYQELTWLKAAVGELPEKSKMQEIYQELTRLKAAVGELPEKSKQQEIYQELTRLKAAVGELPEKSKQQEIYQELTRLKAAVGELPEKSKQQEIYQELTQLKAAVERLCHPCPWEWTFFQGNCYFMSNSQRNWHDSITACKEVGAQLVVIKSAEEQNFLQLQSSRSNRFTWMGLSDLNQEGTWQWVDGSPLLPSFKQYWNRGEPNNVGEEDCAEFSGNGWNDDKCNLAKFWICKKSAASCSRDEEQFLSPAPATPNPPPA
Protocol: as §1, §2, §3

IL-4R = target: T3, IL-4R (Homo sapiens, UniProt P24394); test: as above
T3 construct: The extracellular domains of receptors, which were fused with the Fc domain of immunoglobulin IgG; purchased R&D Systems
T3 sequence (P24394 26-232 limits assumed): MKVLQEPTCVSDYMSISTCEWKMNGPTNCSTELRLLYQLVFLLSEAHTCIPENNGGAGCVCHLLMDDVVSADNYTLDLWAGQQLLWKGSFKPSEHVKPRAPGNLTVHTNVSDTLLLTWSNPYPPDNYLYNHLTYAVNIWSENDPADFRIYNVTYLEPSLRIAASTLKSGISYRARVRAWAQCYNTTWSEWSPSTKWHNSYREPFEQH
Protocol: as §1, §2, §3

CLEC9A = target: T4, CLEC9A (Homo sapiens, UniProt Q6UXN8); test: as above
T4 construct: The extracellular domains of receptors, which were fused with the Fc domain of immunoglobulin IgG; purchased R&D Systems
Protocol: as §1, §2, §3

CD44 = target: T5, CD44 (Homo sapiens, UniProt P16070); test: as above
T5 construct: The extracellular domains of receptors, which were fused with the Fc domain of immunoglobulin IgG; purchased R&D Systems
Protocol: as §1, §2, §3

T5 sequence (P16070 21-220 limits assumed): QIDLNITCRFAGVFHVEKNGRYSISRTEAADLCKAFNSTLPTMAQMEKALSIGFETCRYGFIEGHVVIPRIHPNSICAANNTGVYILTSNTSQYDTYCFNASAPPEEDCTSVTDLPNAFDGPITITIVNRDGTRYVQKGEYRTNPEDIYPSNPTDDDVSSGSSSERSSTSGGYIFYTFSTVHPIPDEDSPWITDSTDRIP
T4 sequence (Q6UXN8 57-241 limits assumed): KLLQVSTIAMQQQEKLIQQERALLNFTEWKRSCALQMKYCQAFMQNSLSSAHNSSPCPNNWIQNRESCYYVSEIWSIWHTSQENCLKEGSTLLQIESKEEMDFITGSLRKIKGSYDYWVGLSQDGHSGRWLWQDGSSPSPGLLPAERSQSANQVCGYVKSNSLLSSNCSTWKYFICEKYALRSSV
T1 sequence (Q9BZZ2 20-1641 limits assumed): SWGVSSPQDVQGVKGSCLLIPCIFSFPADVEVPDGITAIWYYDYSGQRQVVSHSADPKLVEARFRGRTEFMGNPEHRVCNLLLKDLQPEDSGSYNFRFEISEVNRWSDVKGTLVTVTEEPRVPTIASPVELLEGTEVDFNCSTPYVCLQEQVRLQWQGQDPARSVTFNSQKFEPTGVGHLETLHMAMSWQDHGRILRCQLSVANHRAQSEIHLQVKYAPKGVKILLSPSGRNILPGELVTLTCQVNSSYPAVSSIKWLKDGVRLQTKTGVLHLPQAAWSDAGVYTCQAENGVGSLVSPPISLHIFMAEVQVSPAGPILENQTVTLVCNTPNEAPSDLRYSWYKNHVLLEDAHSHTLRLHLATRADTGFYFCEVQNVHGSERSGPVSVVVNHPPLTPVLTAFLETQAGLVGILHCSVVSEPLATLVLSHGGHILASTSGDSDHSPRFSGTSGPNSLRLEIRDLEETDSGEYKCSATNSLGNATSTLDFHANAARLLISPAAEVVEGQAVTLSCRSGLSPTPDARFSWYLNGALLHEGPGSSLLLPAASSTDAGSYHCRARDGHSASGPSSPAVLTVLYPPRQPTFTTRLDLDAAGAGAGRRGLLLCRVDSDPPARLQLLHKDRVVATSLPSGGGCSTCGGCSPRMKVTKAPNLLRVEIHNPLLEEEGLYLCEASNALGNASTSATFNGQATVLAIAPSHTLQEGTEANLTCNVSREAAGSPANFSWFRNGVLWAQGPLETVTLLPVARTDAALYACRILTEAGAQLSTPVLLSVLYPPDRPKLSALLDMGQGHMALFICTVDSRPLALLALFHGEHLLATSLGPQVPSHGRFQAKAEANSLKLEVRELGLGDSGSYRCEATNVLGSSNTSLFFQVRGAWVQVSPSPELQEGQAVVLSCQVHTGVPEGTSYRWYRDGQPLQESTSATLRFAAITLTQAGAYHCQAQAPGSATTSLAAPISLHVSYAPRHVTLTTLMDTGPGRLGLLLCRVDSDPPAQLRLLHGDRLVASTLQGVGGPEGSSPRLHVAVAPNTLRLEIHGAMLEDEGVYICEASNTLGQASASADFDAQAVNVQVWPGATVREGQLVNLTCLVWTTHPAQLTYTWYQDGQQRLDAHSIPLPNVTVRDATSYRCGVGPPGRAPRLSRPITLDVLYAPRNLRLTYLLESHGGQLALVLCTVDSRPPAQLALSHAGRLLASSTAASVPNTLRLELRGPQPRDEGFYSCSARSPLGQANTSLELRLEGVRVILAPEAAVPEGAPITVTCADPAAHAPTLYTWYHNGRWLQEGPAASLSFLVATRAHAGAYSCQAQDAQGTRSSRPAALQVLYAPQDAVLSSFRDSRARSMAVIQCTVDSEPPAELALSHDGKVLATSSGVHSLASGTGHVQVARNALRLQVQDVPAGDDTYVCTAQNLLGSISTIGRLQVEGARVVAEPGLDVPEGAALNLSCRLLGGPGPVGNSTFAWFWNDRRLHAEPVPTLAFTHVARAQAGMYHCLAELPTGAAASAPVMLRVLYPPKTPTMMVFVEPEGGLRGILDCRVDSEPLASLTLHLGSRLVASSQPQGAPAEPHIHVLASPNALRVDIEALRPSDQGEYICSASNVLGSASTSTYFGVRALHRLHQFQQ

Row | Substance | Change in mature, active peritoneal immune cell populations (peritoneal immune cells) | Overall peritoneal cell responses compared with svL4 (peritoneal immune cells; DCs, T cells, NKT cells, days 0, 2, 4) | Binding to Siglec-1 (Siglec-1) | Binding to DC-SIGN (DC-SIGN) | Binding to IL-4R (IL-4R) | Binding to CLEC9A (CLEC9A) | Binding to CD44 (CD44) | Injection after which a significant increase in peritoneal cells occurred (peritoneal immune cells; 1 nmol/g s.c.) | Response of CD19+ B cells (peritoneal immune cells; compared with sv6D)
1 | I: H-NQHTPRGGGSKK-NH2 / II: H-NQHTPRGGGSK / III: H-NQHTPRGGGS / IV: H-NQHTPRGGGS (amide I:11-IV:C, I:12-II:C, II:11-III:C) [sv6D] | several-fold increases | greater than those to svL4 | did not bind significantly | did not bind significantly | not detected | did not bind significantly | not detected | – | –
2 | I: H-VQATQSNQHTPRGGGSKK-NH2 / II: H-VQATQSNQHTPRGGGSK / III: H-VQATQSNQHTPRGGGS / IV: H-VQATQSNQHTPRGGGS (amide I:17-IV:C, I:18-II:C, II:17-III:C) [svL4] | several-fold increases | – | did not bind significantly | did not bind significantly | not detected | did not bind significantly | not detected | only after the second injection | responded more strongly
